Experimental findings from patent US20260297092A1, “PYRAZOLOPYRIMIDINE DERIVATIVES AS INHIBITORS OF NLRP3” (Takeda Pharmaceutical Company Limited, priority 2023, published 2026) are described below.

In assay [1] the test system is NLRP3 inflammasome (IL-1β production in THP-1 cells). The experiment in a line: IL-1β TR-FRET Assay (percentage of inhibition at 300 nM, 6 μM or 10 μM). The assay is classed as cell-based, human. Conditions: Homo sapiens, LPS priming, ATP activation; for inhibition at 0.3 µM: THP-1, 300 nM, read-out: IL-1β inhibitory rate at 300 nM (%); for inhibition at 6 µM: THP-1, 6 μM, read-out: IL-1β inhibitory rate at 6 μM (%). In a few lines: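 THP-1 cells were differentiated with 25 ng/mL IFN-γ for 24 h, primed with 50 ng/mL LPS in serum-free medium for 24 h, then given compound for 30 min before 20 mM ATP for 2 h. Supernatant IL-1β was measured by HTRF after 16-24 h at room temperature. Inhibition was normalized between DMSO (high) and 3 μM MCC-950 (low).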

Assay [2] relates to TNF-α (NF-κB pathway, THP-1 cells). The experiment in a line: TNF-α Assay (IC50). Format: cell-based, human. Conditions: Homo sapiens, 600 ng/mL LPS, 3 hours. In a few lines:
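THP-1 cells differentiated to macrophages with 25 ng/mL IFN for 24 h, plated 40,000/well in serum-free medium, preincubated with compounds 30 min at 37 °C, then stimulated with 600 ng/mL LPS for 3 h. Supernatant TNF-α measured by ELISA; IC50 from four-parameter logistic fit, 100% inhibition defined by TPCA-1.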

Structures are written as SMILES.

As for `CCOc1nc2nn(-c3c(C)cc(OC)cc3C)cc2c(=O)[nH]1` [Example 145, 6-ethoxy-2-(4-methoxy-2,6-dimethylphenyl)-2,5-dihydro-4H-pyrazolo[3,4-d]pyrimidin-4-one], the inhibition at 0.3 µM in assay [1] is 106%. In addition, in assay [2], the IC50 (as a rule, the concentration that gives 50% inhibition) was over 30 µM.
The matching figures for `CCOc1nc2nn(-c3c(C)cc(C4CC4)cc3OC(F)F)cc2c(=O)[nH]1` [Example 222, 2-[4-cyclopropyl-2-(difluoromethoxy)-6-methylphenyl]-6-ethoxy-2,5-dihydro-4H-pyrazolo[3,4-d]pyrimidin-4-one]: 98% and over 30 µM.
The matching figures for `Cc1cc(C)c(-n2cc3c(=O)[nH]c(Cn4cccn4)nc3n2)c(O)c1` [Example 75, 2-(2-hydroxy-4,6-dimethylphenyl)-6-[(1H-pyrazol-1-yl)methyl]-2,5-dihydro-4H-pyrazolo[3,4-d]pyrimidin-4-one]: 98% and over 30 µM.
For `CCOc1nc2nn(-c3c(C)cc(C4CC4)nc3C(F)(F)F)cc2c(=O)[nH]1` [Example 303, 2-[6-cyclopropyl-4-methyl-2-(trifluoromethyl)pyridin-3-yl]-6-ethoxy-2,5-dihydro-4H-pyrazolo[3,4-d]pyrimidin-4-one], the inhibition at 6 µM in assay [1] was 100%. In assay [2], this molecule returned an IC50 of over 30 µM.
For `CCOc1nc2nn(-c3ncc(C4CC4)cc3C)cc2c(=O)[nH]1` [Example 154, 2-(5-cyclopropyl-3-methylpyridin-2-yl)-6-ethoxy-2,5-dihydro-4H-pyrazolo[3,4-d]pyrimidin-4-one], the inhibition at 0.3 µM in assay [1] stood at 93%. Further, the IC50 in assay [2] was over 30 µM.
In the case of `O=c1[nH]c([C@H]2COCCO2)nc2nn(-c3c(F)cc(C4CC4)cc3C(F)F)cc12` (single isomer, unassigned) [Example 312, 2-[4-cyclopropyl-2-(difluoromethyl)-6-fluorophenyl]-6-[(2R)-1,4-dioxan-2-yl]-2,5-dihydro-4H-pyrazolo[3,4-d]pyrimidin-4-one or 2-[4-cyclopropyl-2-(difluoromethyl)-6-fluorophenyl]-6-[(2S)-1,4-dioxan-2-yl]-2,5-dihydro-4H-pyrazolo [3,4-d]pyrimidin-4-one], the inhibition at 6 µM in assay [1] worked out at 104%. The IC50 in assay [2] was over 30 µM.
In the case of `CCOc1nc2nn(-c3c(C)cc(F)cc3F)cc2c(=O)[nH]1` [Example 126, 2-(2,4-difluoro-6-methylphenyl)-6-ethoxy-2,5-dihydro-4H-pyrazolo[3,4-d]pyrimidin-4-one], the inhibition at 0.3 µM in assay [1] amounted to 51%. Further, in assay [2], the IC50 is over 30 µM.
For `Cc1cc(C2CC2)cc(C)c1-n1cc2c(=O)[nH]c(OCCOC(F)F)nc2n1` [Example 288, 2-(4-cyclopropyl-2,6-dimethylphenyl)-6-[2-(difluoromethoxy)ethoxy]-2,5-dihydro-4H-pyrazolo[3,4-d]pyrimidin-4-one], the inhibition at 6 µM in assay [1] worked out at 99%. The molecule also had a 50% inhibitory concentration (IC50) in assay [2] of over 30 µM.
For the molecule `CCOc1nc2nn(-c3c(Br)cc(C)c(F)c3F)cc2c(=O)[nH]1` [Example 97, 2-(6-bromo-2,3-difluoro-4-methylphenyl)-6-ethoxy-2,5-dihydro-4H-pyrazolo[3,4-d]pyrimidin-4-one], in assay [1], the inhibition at 0.3 µM turned out to be 66%. Further, the concentration for half-maximal inhibition (IC50) in assay [2] is over 30 µM.
As to `CCOc1nc2nn(-c3c(F)cc(C4CC4)cc3C(O)C(F)(F)F)cc2c(=O)[nH]1` (racemic) [Example 192, 2-[4-cyclopropyl-2-fluoro-6-(2,2,2-trifluoro-1-hydroxyethyl)phenyl]-6-ethoxy-2,5-dihydro-4H-pyrazolo[3,4-d]pyrimidin-4-one], in assay [1], the inhibition at 0.3 µM came to 95%. This molecule also came in with a half-maximal inhibitory concentration (IC50) in assay [2] of over 30 µM.
As for `COCc1nc2nn(-c3c(F)cc(C4CC4)cc3CC(F)F)cc2c(=O)[nH]1` [Example 322, 2-[4-cyclopropyl-2-(2,2-difluoroethyl)-6-fluorophenyl]-6-(methoxymethyl)-2,5-dihydro-4H-pyrazolo[3,4-d]pyrimidin-4-one], in assay [1], the inhibition at 6 µM turned out to be 104%. The same molecule registered a concentration for half-maximal inhibition (IC50) in assay [2] of over 30 µM.
As to `COCCOc1nc2nn(-c3c(C)cc(Br)cc3C)cc2c(=O)[nH]1` [Example 175, 2-(4-bromo-2,6-dimethylphenyl)-6-(2-methoxyethoxy)-2,5-dihydro-4H-pyrazolo[3,4-d]pyrimidin-4-one], the inhibition at 0.3 µM in assay [1] was 112%. This molecule showed an IC50 in assay [2] of over 30 µM.
Take `Cc1nc(-c2nc3nn(-c4c(C)cc(C5CC5)cc4C)cc3c(=O)[nH]2)co1` [Example 272, 2-(4-cyclopropyl-2,6-dimethylphenyl)-6-(2-methyl-1,3-oxazol-4-yl)-2,5-dihydro-4H-pyrazolo[3,4-d]pyrimidin-4-one]: the inhibition at 6 µM in assay [1] came to 95%. In assay [2], this molecule came in with an IC50 of over 30 µM.
The matching figures for `CCc1cc(C2CC2)cc(C)c1-n1cc2c(=O)[nH]c(COC(F)F)nc2n1` [Example 291, 2-(4-cyclopropyl-2-ethyl-6-methylphenyl)-6-[(difluoromethoxy)methyl]-2,5-dihydro-4H-pyrazolo[3,4-d]pyrimidin-4-one]: 98% and over 30 µM.
Turning to `COCCOc1nc2nn(-c3c(C)cc(C4CC4)cc3C)cc2c(=O)[nH]1` [Example 194, 2-(4-cyclopropyl-2,6-dimethylphenyl)-6-(2-methoxyethoxy)-2,5-dihydro-4H-pyrazolo[3,4-d]pyrimidin-4-one], in assay [1], the inhibition at 0.3 µM amounted to 100%. Also, in assay [2], the IC50 was over 30 µM.
Consider `Cc1ccc(C)c(-n2cc3c(=O)[nH]c(-c4ccncn4)nc3n2)c1O` [Example 41, 2-(2-hydroxy-3,6-dimethylphenyl)-6-(pyrimidin-4-yl)-2,5-dihydro-4H-pyrazolo[3,4-d]pyrimidin-4-one], for which the inhibition at 0.3 µM in assay [1] is 99%. This molecule registered an IC50 in assay [2] of over 30 µM.
With `COC[C@@H](C)Oc1nc2nn(-c3c(F)cc(C4CC4)cc3C(F)F)cc2c(=O)[nH]1` [Example 207, 2-[4-cyclopropyl-2-(difluoromethyl)-6-fluoro-phenyl]-6-{[(2R)-1-methoxypropan-2-yl]oxy}-2,5-dihydro-4H-pyrazolo[3,4-d]pyrimidin-4-one], the inhibition at 0.3 µM in assay [1] stood at 98%. For the same molecule, in assay [2], the IC50 is over 30 µM.
Regarding `Cc1cc(C2CC2)cc(C(F)F)c1-n1cc2c(=O)[nH]c(COC(F)F)nc2n1` [Example 283, 2-[4-cyclopropyl-2-(difluoromethyl)-6-methylphenyl]-6-[(difluoromethoxy)methyl]-2,5-dihydro-4H-pyrazolo[3,4-d]pyrimidin-4-one], the inhibition at 6 µM in assay [1] was 99%. The same molecule gave an IC50 in assay [2] of over 30 µM.
With `Cc1cc(C)c(-n2cc3c(=O)[nH]c(OC(C)C)nc3n2)c(O)c1` [Example 7, 2-(2-hydroxy-4,6-dimethylphenyl)-6-[(propan-2-yl)oxy]-2,5-dihydro-4H-pyrazolo[3,4-d]pyrimidin-4-one], in assay [1], the inhibition at 0.3 µM stood at 99%. Moreover, in assay [2], the IC50 was over 30 µM.
In the case of `COc1nc2nn(-c3c(C)cc(C4CC4)cc3CC(F)(F)F)cc2c(=O)[nH]1` [Example 230, 2-[4-cyclopropyl-2-methyl-6-(2,2,2-trifluoroethyl)phenyl]-6-methoxy-2,5-dihydro-4H-pyrazolo[3,4-d]pyrimidin-4-one], the inhibition at 6 µM in assay [1] was 93%. Further, the IC50 in assay [2] was over 30 µM.
As to `Cc1cc(C)c(-n2cc3c(=O)[nH]c(OCCN(C)C)nc3n2)c(O)c1` [Example 50, 6-[2-(dimethylamino)ethoxy]-2-(2-hydroxy-4,6-dimethylphenyl)-2,5-dihydro-4H-pyrazolo[3,4-d]pyrimidin-4-one], the inhibition at 0.3 µM in assay [1] stood at 101%. This molecule also yielded an IC50 in assay [2] of over 30 µM.
`CCOc1nc2nn(-c3c(F)cc(C)cc3C(F)(F)F)cc2c(=O)[nH]1` [Example 73, 6-ethoxy-2-[2-fluoro-4-methyl-6-(trifluoromethyl)phenyl]-2,5-dihydro-4H-pyrazolo[3,4-d]pyrimidin-4-one]: in assay [1], the inhibition at 0.3 µM amounted to 97%. Moreover, the IC50 in assay [2] was over 30 µM.
Regarding `Cc1cc(C)c(-n2cc3c(=O)[nH]c(-c4ccc(F)cn4)nc3n2)c(O)c1` [Example 13, 6-(5-fluoropyridin-2-yl)-2-(2-hydroxy-4,6-dimethylphenyl)-2,5-dihydro-4H-pyrazolo[3,4-d]pyrimidin-4-one], in assay [1], the inhibition at 0.3 µM turned out to be 99%. Moreover, the IC50 in assay [2] was over 30 µM.
For `CCOc1nc2nn(-c3c(C)cc(C(F)F)cc3F)cc2c(=O)[nH]1` [Example 136, 2-[4-(difluoromethyl)-2-fluoro-6-methylphenyl]-6-ethoxy-2,5-dihydro-4H-pyrazolo[3,4-d]pyrimidin-4-one], in assay [1], the inhibition at 0.3 µM was found to be 92%. For the same molecule, the IC50 in assay [2] is over 30 µM.
For the molecule `COC1(c2nc3nn(-c4c(C)cc(C5CC5)cc4C)cc3c(=O)[nH]2)CC1` [Example 266, 2-(4-cyclopropyl-2,6-dimethylphenyl)-6-(1-methoxycyclopropyl)-2,5-dihydro-4H-pyrazolo[3,4-d]pyrimidin-4-one], in assay [1], the inhibition at 6 µM came out at 98%. In assay [2], this molecule displayed an IC50 of over 30 µM.
As for `Cc1cc(C2CC2)cc(C)c1-n1cc2c(=O)[nH]c(-c3cn(C)nn3)nc2n1` [Example 229, 2-(4-cyclopropyl-2,6-dimethylphenyl)-6-(1-methyl-1H-1,2,3-triazol-4-yl)-2,5-dihydro-4H-pyrazolo[3,4-d]pyrimidin-4-one], the inhibition at 0.3 µM in assay [1] turned out to be 99%. In addition, the IC50 in assay [2] is over 30 µM.
The matching figures for `Cc1cc(C)c(-n2cc3c(=O)[nH]c(O[C@H]4CCOC4)nc3n2)c(O)c1` [Example 14, 2-(2-hydroxy-4,6-dimethylphenyl)-6-{[(3S)-oxolan-3-yl]oxy}-2,5-dihydro-4H-pyrazolo[3,4-d]pyrimidin-4-one]: 96% and over 30 µM.
